# In patent publication US6890708B2, “Method for improving the quality of sperm for artificial insemination of animals” (priority 2000, dated 2005):
# Read-outs that look alike come from different tables or passages of the source.
# Experiments:
# [1] = system: Polymorphonuclear Neutrophils (PMN); test: In vitro phagocytosis of boar sperm by PMN (phagocytosis assay); format: cell-based, pig; details: for % of phagocytosed sperm: Exp. 1; for inhibition at 200 µM / inhibition at 500 µM / inhibition at 1000 µM / inhibition at 2000 µM: Sus scrofa, Polymorphonuclear neutrophil, read-out: % inhibition (percentage decrease of phagocytosis relative to control)
# Experimental: Tyrode's medium was used as described as “standard Tyrode's medium” in […] et al. ([…], Harrison, R A P, Miller, N G A, Topper, E K, and Woelders, H, 1998, Enhanced Binding of Zona Pellucida Proteins to the Acrosomal Region of Intact Boar Spermatozoa in Response to Fertilizing Conditions: A Flow Cytometric Study. […] Serum was prepared from blood collected from 11 primiparous sows, pooled, and frozen in aliquots at -80° C. Per experiment, 20 ml peripheral blood of a single Dutch Landrace sow (each experiment a different sow) was collected in heparinized vacutainers (Venoject, Omnilabo, Breda, The Netherlands). The peripheral blood was subsequently diluted with an equal volume of phosphate buffered saline (PBS). […] The supernatant, including the mononuclear cells at the interface, was removed. The pellet was resuspended in 2 ml of ice-cold distilled water to lyse the erythrocytes. […] The PMNs were pelleted by centrifugation for 10 min at 400×g and the lysis procedure was repeated. […] All cell suspensions were pooled together, mixed well, and subjected to centrifugation. The PMN were resuspended in TM-s with inactivated complement, and the cell concentration was determined using a hemocytometer. The PMN preparation was stored overnight at 4° C. […] The viability, assessed by trypan blue exclusion, was >98%. Semen was obtained from Dutch A.I. stations. Per experiment, semen was used from a single Yorkshire breeding boar (each experiment a different boar). At the AI-station, the semen was diluted to a concentration of approximately 30×10^6 cells/ml in Beltsville Thawing Solution (BTS) (Johnson et al., 1988). The diluted semen was stored at 17° C. for up to 48 hours, until the diluted semen sample was used. […] Aliquots of 80 μl of the PMN suspension (see, PMN isolation and preparation of PMNs) in TM or TM-s, with either intact or inactivated complement, were transferred to a 96-well polystyrene microtest plate. […] The samples were incubated with gentle swirling on a test plate shaker. […] The heparin facilitates dissociation of agglutinated PMNs. The samples were thoroughly mixed, left for 15 min., and mixed again. […] The frozen-thawed semen was taken from a large stock of semen from one ejaculate and washed 3 times in PBS prior to use. […] The mounts enabled observation and counting of fluorescently labeled spermatozoa inside and outside the phagocytes. By focusing at different levels in the mount, spermatozoa that were located above or below the PMN could be distinguished from those that were phagocytosed. In many PMNs that had ingested a spermatozoon, the presence of the sperm nucleus or tail caused a conspicuous change of the shape of the PMN. Two hundred spermatozoa were evaluated and classified as inside or outside the PMN (i.e., phagocytosed or not phagocytosed). The same fixed mounts were used to assess the acrosome morphology of the non-phagocytosed spermatozoa at the moment of fixation.
# sows = test: Example III Series 2: embryos and accessory sperm after insemination of sows; format: in vivo, pig
# Experimental: Series 2: Batches of sows (parity 2-13) received hCG at 84 hours after weaning. The sows were inseminated at 16 hours after hCG administration (on average 26 hours, ranging from 21-28 hours, before ovulation as observed by transrectal ultrasonography) or inseminated at 4 hours after ovulation. […] The sows were slaughtered at 115 (112-120) hours after ovulation. The embryos were flushed, examined morphologically, and the number of accessory sperm were counted.
# [2] = Exp. 2, 0.2 mM, without pre-incubation, 15 min
# [3] = Exp. 2, 0.2 mM, without pre-incubation, 30 min
# [4] = Exp. 2, 0.2 mM, without pre-incubation, 60 min
# [5] = Exp. 2, 0.5 mM, after pre-incubation, 15
# [6] = Exp. 2, 0.5 mM, after pre-incubation, 30
# [7] = Exp. 2, 0.5 mM, after pre-incubation, 60
# [8] = Exp. 2, 0.5 mM, without pre-incubation, 15 min
# [9] = Exp. 2, 0.5 mM, without pre-incubation, 30 min
# [10] = Exp. 2, 0.5 mM, without pre-incubation, 60 min
# [11] = Exp. 2, 1 mM, after pre-incubation, 15
# [12] = Exp. 2, 1 mM, after pre-incubation, 30
# [13] = Exp. 2, 1 mM, after pre-incubation, 60
# [14] = Exp. 2, 1 mM, without pre-incubation, 15 min
# [15] = Exp. 2, 1 mM, without pre-incubation, 30 min
# [16] = Exp. 2, 1 mM, without pre-incubation, 60 min
# [17] = Exp. 2, 2 mM, after pre-incubation, 15
# [18] = Exp. 2, 2 mM, after pre-incubation, 30
# [19] = Exp. 2, 2 mM, after pre-incubation, 60
# [20] = Exp. 2, 2 mM, without pre-incubation, 15 min
# [21] = Exp. 2, 2 mM, without pre-incubation, 30 min
# [22] = Exp. 2, 2 mM, without pre-incubation, 60 min
# [23] = Exp. 3, 1 mM, pre-incubation of sperm 30 min. at 38° C., 15 min
# [24] = Exp. 3, 1 mM, pre-incubation of sperm 30 min. at 38° C., 30 min
# [25] = Exp. 3, 1 mM, pre-incubation of sperm 30 min. at 38° C., 60 min
smiles,measurement,setting,value
"Cn1c(=O)c2c(ncn2C)n(C)c1=O [caffeine, 1,3,7-Trimethylxanthine]","phagocytosis of sperm by PMN in vitro, in words",[1],decreased
same,% of phagocytosed sperm,"[1]; 1 mM, without pre-incubation, 1st value column, head not printed",20%
same,% of phagocytosed sperm,"[1]; 1 mM, without pre-incubation, 2nd value column, head not printed",22%
same,% of phagocytosed sperm,"[1]; 1 mM, without pre-incubation, 3rd value column, head not printed",18%
same,% of phagocytosed sperm,"[1]; 2 mM, preincubated 30 min. at 38° C., phagocytosis time 15 min",22%
same,% of phagocytosed sperm,"[1]; 2 mM, preincubated 30 min. at 38° C., phagocytosis time 30 min",15%
same,% of phagocytosed sperm,"[1]; 2 mM, preincubated 30 min. at 38° C., phagocytosis time 60 min",29%
same,% of phagocytosed sperm,"[1]; 2 mM, preincubated 30 min. at 38° C., phagocytosis time 90 min",20%
same,% phagoc. sperm,[1]; [2],48%
same,% phagoc. sperm,[1]; [3],73%
same,% phagoc. sperm,[1]; [4],75%
same,% phag. Sperm,[1]; [5],29%
same,% phag. Sperm,[1]; [6],28%
same,% phag. Sperm,[1]; [7],42%
same,% phagoc. sperm,[1]; [8],40%
same,% phagoc. sperm,[1]; [9],67%
same,% phagoc. sperm,[1]; [10],68%
same,% phag. Sperm,[1]; [11],14%
same,% phag. Sperm,[1]; [12],26%
same,% phag. Sperm,[1]; [13],24%
same,% phagoc. sperm,[1]; [14],29%
same,% phagoc. sperm,[1]; [15],58%
same,% phagoc. sperm,[1]; [16],62%
same,% phag. Sperm,[1]; [17],9%
same,% phag. Sperm,[1]; [18],17%
same,% phag. Sperm,[1]; [19],21%
same,% phagoc. sperm,[1]; [20],28%
same,% phagoc. sperm,[1]; [21],51%
same,% phagoc. sperm,[1]; [22],56%
same,% phag. Sperm,[1]; [23],32%
same,% phag. Sperm,[1]; [24],45%
same,% phag. Sperm,[1]; [25],56%
same,"phagocytosis of sperm, in words","[1]; Exp. 4, caffeine added to the semen extender the day before use",inhibits phagocytosis after one day
same,"phagocytosis of sperm by PMN in vitro, in words","[1]; Exp. 5, 1 mM",reduced the phagocytosis of sperm by PMN in vitro
same,inhibition at 200 µM,[1]; [2],9%
same,inhibition at 200 µM,[1]; [3],4%
same,inhibition at 200 µM,[1]; [4],3%
same,inhibition at 500 µM,[1]; [5],38%
same,inhibition at 500 µM,[1]; [6],56%
same,inhibition at 500 µM,[1]; [7],33%
same,inhibition at 500 µM,[1]; [8],25%
same,inhibition at 500 µM,[1]; [9],12%
same,inhibition at 500 µM,[1]; [10],12%
same,inhibition at 1000 µM,[1]; [11],70%
same,inhibition at 1000 µM,[1]; [12],59%
same,inhibition at 1000 µM,[1]; [13],62%
same,inhibition at 1000 µM,[1]; [14],45%
same,inhibition at 1000 µM,[1]; [15],24%
same,inhibition at 1000 µM,[1]; [16],19%
same,inhibition at 2000 µM,[1]; [17],81%
same,inhibition at 2000 µM,[1]; [18],73%
same,inhibition at 2000 µM,[1]; [19],67%
same,inhibition at 2000 µM,[1]; [20],47%
same,inhibition at 2000 µM,[1]; [21],33%
same,inhibition at 2000 µM,[1]; [22],27%
same,inhibition at 1000 µM,[1]; [23],43%
same,inhibition at 1000 µM,[1]; [24],37%
same,inhibition at 1000 µM,[1]; [25],29%
same,"% fertilized oocytes, in words",sows,tended to be higher
